Where two headings read alike, the source gives them in different places. Ends that are not written are not given here.
Legend:
[1] = epidural administration; cited from earlier work

Experimental for rat: Intrathecal catheters were surgically implanted in the rats after application of anesthetic (Nembutal, 30 mg/kg, intraperitoneal) 5-7 days prior to the test procedure. The 5-7 day period prior to testing allowed for full recovery from the surgical procedures. […] Each catheter was anchored to the skull with cyanoacrylate adhesive, and the skull was closed with wound clips. The free end of each catheter was heat annealed; when compositions were to be injected via the intrathecal route each composition was introduced therein using a Hamilton needle inserted into the sealed catheter.
Pain sensitivity was assessed using a standard analgesiometric hot plate test (Woolfe and MacDonald (1944) J. Pharmacol. Exp. Ther. 80:300). The hot plate response was determined by placing a rat on a 55° C. copper hot plate enclosed in a plexiglass cylinder.
Because of the technical demands of these experiments, no more than 8-9 rats were tested on a given day. Sufficient animals were studied to obtain 10-11 evaluable rats per test condition. On the study day, animals were tested for baseline hot plate responses, and then received bolus injections of test analgesic or physiological saline (control). Hot plate responses were assessed again at 15 min, 30 min, 1 hr, 3 hr, 6 hr and 24 hr after intrathecal injection of test compound or vehicle control.
Ninety-six (96) rats, ranging in weight from 320 g to 420 g, were used in this study. Catheters were implanted and recovery was allowed for as described hereinabove. […] Drug or saline vehicle doses were administered using Hamilton needles inserted into the catheters, with a dose volumes of 37.5 μL/kg followed by a 10 μL saline catheter wash-out. Baseline (pre-drug) and responses at 15 min, 30 min, 1 hr, 3 hr, 6 hr and 24 hr after drug or vehicle injection were determined.

CN1CC[C@]23c4c5ccc(O)c4O[C@H]2[C@@H](O)C=C[C@H]3[C@H]1C5.O=S(=O)(O)O [Morphine, Morphine sulfate]
Hot Plate Latency (Mean ± SEM) (rat; 37.5 μg/kg (49.42 nmol/kg) intrathecal single, 0 hr (baseline)): 12.81 ± 1.23 s | Hot Plate Latency (Mean ± SEM) (rat; 37.5 μg/kg (49.42 nmol/kg) intrathecal single, 0.25 hr): 22.08 ± 2.68 s | Hot Plate Latency (Mean ± SEM) (rat; 37.5 μg/kg (49.42 nmol/kg) intrathecal single, 0.5 hr): 20.97 ± 2.56 s | Hot Plate Latency (Mean ± SEM) (rat; 37.5 μg/kg (49.42 nmol/kg) intrathecal single, 1 hr): 21.81 ± 2.46 s | Hot Plate Latency (Mean ± SEM) (rat; 37.5 μg/kg (49.42 nmol/kg) intrathecal single, 3 hr): 19.97 ± 2.05 s | Hot Plate Latency (Mean ± SEM) (rat; 37.5 μg/kg (49.42 nmol/kg) intrathecal single, 6 hr): 14.02 s | Hot Plate Latency (Mean ± SEM) (rat; 37.5 μg/kg (49.42 nmol/kg) intrathecal single, 24 hr): 11.33 ± 1.51 s | Hot Plate Latency (Mean ± SEM) (rat; 75.0 μg/kg (98.84 nmol/kg) intrathecal single, 0 hr (baseline)): 13.76 ± 1.27 s | Hot Plate Latency (Mean ± SEM) (rat; 75.0 μg/kg (98.84 nmol/kg) intrathecal single, 0.25 hr): 22.76 ± 2.43 s | Hot Plate Latency (Mean ± SEM) (rat; 75.0 μg/kg (98.84 nmol/kg) intrathecal single, 0.5 hr): 21.86 ± 2.25 s | Hot Plate Latency (Mean ± SEM) (rat; 75.0 μg/kg (98.84 nmol/kg) intrathecal single, 1 hr): 19.88 ± 2.04 s | Hot Plate Latency (Mean ± SEM) (rat; 75.0 μg/kg (98.84 nmol/kg) intrathecal single, 3 hr): 17.42 ± 1.93 s | Hot Plate Latency (Mean ± SEM) (rat; 75.0 μg/kg (98.84 nmol/kg) intrathecal single, 6 hr): 17.66 s | Hot Plate Latency (Mean ± SEM) (rat; 75.0 μg/kg (98.84 nmol/kg) intrathecal single, 24 hr): 12.60 ± 1.19 s | Hot Plate Latency (Mean ± SEM) (rat; 125.0 μg/kg (164.73 nmol/kg) intrathecal single, 0 hr (baseline)): 13.28 ± 1.35 s | Hot Plate Latency (Mean ± SEM) (rat; 125.0 μg/kg (164.73 nmol/kg) intrathecal single, 0.25 hr): 19.4 ± 1.6 s | Hot Plate Latency (Mean ± SEM) (rat; 125.0 μg/kg (164.73 nmol/kg) intrathecal single, 0.5 hr): 26.36 ± 4.20 s | Hot Plate Latency (Mean ± SEM) (rat; 125.0 μg/kg (164.73 nmol/kg) intrathecal single, 1 hr): 26.83 ± 3.04 s | Hot Plate Latency (Mean ± SEM) (rat; 125.0 μg/kg (164.73 nmol/kg) intrathecal single, 3 hr): 21.69 ± 3.62 s | Hot Plate Latency (Mean ± SEM) (rat; 125.0 μg/kg (164.73 nmol/kg) intrathecal single, 6 hr): 15.86 s | Hot Plate Latency (Mean ± SEM) (rat; 125.0 μg/kg (164.73 nmol/kg) intrathecal single, 24 hr): 13.49 s | onset of antinociception/analgesia post-injection (rat; intrathecal, all tested doses): ≤ 15 min | dose relation of hot plate latency (rat; intrathecal, all three doses (37.5, 75.0, 125.0 μg/kg)): increased hot plate latency in a dose-related fashion | peak levels of analgesia compared with elcatonin (rat; intrathecal, doses used in this study): generally lower | time of return toward baseline hot plate scores (rat; intrathecal, post-injection, particularly lower doses): ≤ 6 h

salmon calcitonin: salmon calcitonin, sequence given as SEQ ID No 4 (CSNLSTCVLGKLSQELHKLQTYPRTNTGSGTP; ends and bridges not checked; cysteine pairing not given here)
use as an analgesic in intractable pain [1]: the data did not appear to support its use as an analgesic
